In publication PMC7552967, “Anti-Melanoma Activities of Artemisone and Prenylated Amino-Artemisinins in Combination With Known Anticancer Drugs” (Frontiers in Pharmacology, 2020):

What was measured:
[1] = tested on: MCF-7 breast cancer cells; test: Sulforhodamine B (SRB) growth inhibition assay, MCF7; assay type: cell-based; conditions: Homo sapiens, mean ± SD
Source text: (§1) The human cell lines TK10 (human kidney adenocarcinoma), UACC62 (human melanoma) and MCF7 (human breast adenocarcinoma) were obtained from the National Cancer Institute (NCI) as part of a panel widely studied for drug screening and molecular target identification. Melanoma (A375) and human embryonic kidney (HEK293) were acquired from the American Type Culture Collection; ATCC® CRL-1619™ and ATCC® CRL-1573™ respectively. The nontumorigenic human immortalized keratinocyte (HaCaT) cells were a kind donation by the School of Anatomical Sciences, Faculty of Health Sciences, University of the Witwatersrand, South Africa. […]
(§2) The growth inhibitory effects of the compounds were tested in the 3-cell line panel consisting of TK10 (renal), UACC62 (melanoma) and MCF7 (breast) cancer cells by Sulforhodamine B (SRB) assay. In addition, activity was also evaluated against HEK293 cells with the 3-(4,5-dimethylthiazol-2-yl)-2,5-diphenyl tetrazolium bromide (MTT) assay ([Mosmann, 1983]). […] The results were expressed as half maximal inhibitory concentrations (IC50) as described before ([Lewies et al., 2018]). […] After incubation, cell viability was determined using a microplate reader (BioTek®, Vermont, USA) at an excitation wavelength of 560 nm and emission wavelength of 630 nm with DMSO measured as a blank. […] Using the MTT assay data, IC50 values were calculated using GraphPad Prism 8. […]

[2] = tested on: UACC62 melanoma cells; test: Sulforhodamine B (SRB) growth inhibition assay, UACC62; assay type: cell-based; conditions: Homo sapiens, UACC-62, mean ± SD
Source text: as §1, §2

| Compound | IC50 [1] | IC50 [2] |
| --- | --- | --- |
| C[C@H]1[C@H](N2CCS(=O)(=O)CC2)O[C@@H]2O[C@@]3(C)CC[C@H]4[C@H](C)CC[C@@H]1[C@@]24OO3 [Artemisone 4, artemisone] | 2750 ± 790 nM | 32700 ± 3470 nM |
| CC(C)=CCC/C(C)=C/CC/C(C)=C/CN1CCN([C@@H]2O[C@@H]3O[C@@]4(C)CC[C@H]5[C@H](C)CC[C@@H]([C@H]2C)[C@@]35OO4)CC1 [Farnesylpiperazine-DHA 7, farnesylpiperazine-DHA] | 1560 ± 510 nM | 2150 ± 790 nM |
